Assay results as given in the supplement of paper PMC11451515.

Experiments:
P12-Ichikawa [1] = assay: AUC of viability dose-response curve (% viability x log10 dose units); higher = less sensitive; conditions: 48 h
Procedure, shortened: (§1)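 Leukemia cells adapted to each medium were seeded in 1536-well plates (500 or 1000 cells/well) and given library compounds in DMSO for 48 h at 37°C. The 11 threefold doses spanned 47 μM to 0.79 nM, and CellTiter-Glo One luminescence was normalised per plate to DMSO and cell-free wells before four-parameter log-logistic fitting on log10 dose. Area under the curve was integrated with the trapezoidal rule, scaling curves above full viability and removing curves that failed quality control.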

NOMO1 = assay: as above; conditions: 48 h
Procedure, shortened: as §1

SEM cells [2] = assay: cell viability relative to DMSO control; higher = less cytotoxic; conditions: 48 h
Procedure, shortened: (§2)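 Cells were incubated for 48 h at 37°C before CellTiter-Glo One luminescence was read. The cells were NOMO1 or SEM (500 cells/well) or P12-Ichikawa (1000 cells/well) leukemia cells, adapted for at least four passages in each medium and seeded in 1536-well plates (5 μl). Dosing used library compounds in DMSO applied by pin over 11 threefold points, 47 μM to 0.79 nM. Viability is the per-plate percentage of DMSO wells, with cell-free wells as background.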

SEM cells [3] = assay: AUC of viability dose-response curve (% viability x log10 dose units); higher = less sensitive; conditions: 48 h
Procedure, shortened: as §1

P12-Ichikawa [4] = assay: cell viability relative to DMSO control; higher = less cytotoxic; conditions: HPLM + 10% dialyzed FBS, 48 h
Procedure, shortened: as §2

O=C1N(c2ccccc2)c2ccccc2C1(Cc1ccncc1)Cc1ccncc1
AUC of viability dose-response curve
Conditions	HPLM + 10% dialyzed FBS	RPMI 5 mM glucose + 10% FBS	RPMI 5 mM glucose + 10% dialyzed FBS
NOMO1	462	473	465
P12-Ichikawa [1]	446	437	424

SEM cells [2], RPMI 5 mM glucose + 10% FBS
Conditions	cell viability [%]
0.000781 µM	84.9
0.00234 µM	115
0.00702 µM	133
0.0211 µM	148
0.0632 µM	129
0.19 µM	43.9
0.569 µM	137
1.71 µM	94.4
5.12 µM	88.3
15.4 µM	108
46.1 µM	152

N#C/C(=C(/N)Sc1ccc(N)cc1)c1ccccc1C(F)(F)F
Conditions	AUC of viability dose-response curve	cell viability [%]
NOMO1, HPLM + 10% dialyzed FBS	354	–
NOMO1, RPMI 5 mM glucose + 10% FBS	386	–
NOMO1, RPMI 5 mM glucose + 10% dialyzed FBS	366	–
P12-Ichikawa [1], HPLM + 10% dialyzed FBS	433	–
P12-Ichikawa [1], RPMI 5 mM glucose + 10% FBS	417	–
P12-Ichikawa [1], RPMI 5 mM glucose + 10% dialyzed FBS	436	–
P12-Ichikawa [4], 0.000781 µM	–	123
P12-Ichikawa [4], 0.00234 µM	–	121
P12-Ichikawa [4], 0.00702 µM	–	125
P12-Ichikawa [4], 0.0211 µM	–	125
P12-Ichikawa [4], 0.0632 µM	–	133
P12-Ichikawa [4], 0.19 µM	–	118
P12-Ichikawa [4], 0.569 µM	–	120
P12-Ichikawa [4], 1.71 µM	–	103
P12-Ichikawa [4], 5.12 µM	–	94.4
P12-Ichikawa [4], 15.4 µM	–	94.1
P12-Ichikawa [4], 46.1 µM	–	83.9
SEM cells [3], HPLM + 10% dialyzed FBS	428	–
SEM cells [3], RPMI 5 mM glucose + 10% FBS	424	–
SEM cells [3], RPMI 5 mM glucose + 10% dialyzed FBS	404	–

SEM cells [2], HPLM + 10% dialyzed FBS
Conditions	cell viability [%]
0.000781 µM	91.1
0.00234 µM	141
0.00702 µM	124
0.0211 µM	129
0.0632 µM	129
0.19 µM	124
0.569 µM	126
1.71 µM	110
5.12 µM	85.4
15.4 µM	82.3
46.1 µM	64.6
